In patent US7820640B2, “Methods for treating hearing loss” (Sound Pharmaceuticals Incorporated, priority 2002, dated 2010):
Several values for one entry are separate records, joined by “and”; a condition that tells them apart may be missing. Identical values can stand only once.

How the values were obtained:
Assay type in all cases: in vivo, rat
[1] = system: Fisher-344 rats exposed to 110-115 dB noise at 4-16 kHz for 4 hours; experiment: ABR permanent threshold shift, ebselen and allopurinol alone or combined (Example 2); conditions: for difference in ABR threshold shifts between control and treated rats: 16 mg/kg individually, combination 8 mg/kg each, highly significant = p<0.01; for protection from both temporary and permanent thresholds shifts: ABR, rats exposed to noise, alone or in combination; for reductions in PTS compared with controls: three weeks after noise exposure, intra-peritoneal injection at 16 mg/kg individually
Procedure: Noise exposure paradigm: 8-10 week old female Fisher-344 rats were exposed to 110-115 dB noise at 4-16 kHz for 4 hours.
Physiologic analyses: ABR generated with a click stimulus (broad spectrum stimulus, 4-16 kHz), and with tone stimuli at frequencies of 4 kHz, 8 kHz, 12 kHz, and 16 kHz, was measured in 5 dB intervals, as described in EXAMPLE 1. Animals were tested before and at 3 weeks post noise exposure to assess PTS.
Dosing of compounds: Ebselen was dissolved at 4 mg/ml in 10% DMSO and allopurinol was dissolved at 4 mg/ml in water. Ebselen and allopurinol were administered to rats at an individual dose of 16 mg/kg or at a combined dose of 8 mg/kg each. About 0.5 ml of ebselen solution, allopurinol solution, or ebselen/allopurinol solution was injected intra-peritoneally or delivered by oral gavage twice daily the day prior to, the day of, and the day following exposure to noise. Control animals were dosed on an identical schedule with vehicle only.
(§1) Statistical analysis: All experiments were performed with four rats per study group, and measuring each ear independently before and after noise exposure. Data was collected in blinded studies. Statistical analyses were performed by ANOVA between study groups.

[2] = system: Fisher-344 rats exposed to 110 dB noise at 4-16 kHz for 4 hours two times three weeks apart; experiment: ABR threshold shift after repeated noise exposure (Example 3); conditions: 16 mg/kg; for difference in ABR threshold shifts between control and treated rats: 3 weeks after two exposures to 110 dB noise
Procedure: (§2) Noise exposure paradigm: 8-week old female Fisher-344 rats were exposed to 110 dB noise at 4-16 kHz for 4 hours two times three weeks apart.
Physiologic analyses: ABR generated with tone stimuli at frequencies of 4 kHz, 8 kHz, 12 kHz, and 16 kHz, was measured in 5 dB intervals, as described in EXAMPLE 1. […]
(§3) Dosing of Ebselen: Ebselen was dissolved at 4 mg/mL in 10% DMSO and administered to rats at a dose of 16 mg/kg. About 0.5 ml of ebselen solution was injected intra-peritoneally or delivered by oral gavage twice daily the day prior to, the day of, and the day following each exposure to noise. Control animals were dosed on an identical schedule with vehicle only.
as §1

[3] = system: outer hair cells in cochlea of repeatedly noise-exposed Fisher-344 rats; experiment: Cochlear hair cell counts after repeated noise exposure (Example 3); conditions: 16 mg/kg
Procedure: as §2
Morphologic analyses: Hair cell counts in cochlea from test animals following noise exposure and physiologic evaluation using ABR were determined as described in EXAMPLE 1.
as §3

[4] = system: outer hair cells in cochlea of noise-exposed Fisher-344 rats; experiment: Cochlear hair cell counts after noise exposure (Example 1); conditions: for physiologic protection from noise-induced hearing loss and hair cell loss: Example 1 conclusion, ebselen 16 mg/kg, N-acetyl-cysteine 325 mg/kg
Procedure: (§4) Noise exposure paradigm: 8-week old female Fisher-344 rats were exposed to 110-115 dB noise at 4-16 kHz for 4 hours.
Morphologic analyses: Hair cell counts in cochlea from test animals following noise exposure and physiologic evaluation using ABR were determined by carefully dissecting cochlea to obtain inner ear sensory epithelia. The tissues were stained with fluorescein-labeled phalloidin (specific for actin filaments, which are abundant in hair cells) and 4,6-diamidino-2-phenylindole (DAPI; specific for the DNA in the nucleus in cells). Samples were then mounted on microscope slides and viewed with epifluorescence to determine the extent of hair cell loss and retention. The correlation between physiologic data (ABR) and morphological data (hair cell counts) allows for confirmation of the protective effects of otoprotectants of the invention.
(§5) Dosing of Otoprotectants: Ebselen was dissolved at 4 mg/mL in 10% DMSO and administered to rats at 16 mg/kg. N-acetyl-cysteine was dissolved at 100 mg/mL in saline and was administered to rats at 325 mg/kg. About 0.5 ml of ebselen solution or N-acetyl-cysteine solution was injected intra-peritoneally or delivered by oral gavage twice daily the day prior to, the day of, and the day following exposure to noise. Control animals were dosed on an identical schedule with vehicle (10% DMSO) only.

[5] = system: Fisher-344 rats exposed to 110-115 dB noise at 4-16 kHz for 4 hours; experiment: ABR threshold shift after a single noise exposure (Example 1); conditions: for difference in ABR threshold shifts between control and treated rats: 4-16 kHz click stimulus, ebselen 16 mg/kg
Procedure: as §4
Physiologic analyses: The auditory evoked brainstem response (ABR) was used to assess hearing in each ear in each animal before and after exposure to noise using equipment from Intelligent Hearings System. ABR generated with a click stimulus (broad spectrum stimulus, 4-16 kHz) was measured in 5 dB intervals. Animals were re-evaluated evaluated at 1 day, 1 week, 2 weeks, and 3 weeks post noise exposure. ABR changes measured 1 day post noise exposure are considered to represent a temporary threshold shift (TTS); ABR changes measured 3 weeks post noise exposure are considered to represent a permanent threshold shift (PTS).
as §5
Statistical analysis: All experiments were performed with four rats per study group, and measuring each ear independently before and after noise exposure. Data was collected in blinded studies. Statistical analyses were performed by analysis of variance (ANOVA) between study groups.

[6] = 4 kHz stimulus, 3 weeks after noise
[7] = click stimulus, 3 weeks after 115 dB, 4-16 kHz noise for 4 h
[8] = 1 week post noise, N-acetyl-cysteine 325 mg/kg, highly significant = p<0.01, significant = p<0.05
[9] = 2 weeks post noise, N-acetyl-cysteine 325 mg/kg, highly significant = p<0.01, significant = p<0.05
[10] = 3 weeks post noise, N-acetyl-cysteine 325 mg/kg, significant = p<0.05
[11] = 1 day post noise (115 dB, 4-16 kHz, 4 h), N-acetyl-cysteine 325 mg/kg twice daily, highly significant = p<0.01, significant = p<0.05

SMILES | difference in ABR threshold shifts between control and treated rats [1, 6] | protection from both temporary and permanent thresholds shifts [1] | difference in ABR threshold shifts between control and treated rats [1, 7] | reductions in PTS compared with controls [1] | physiologic protection from noise-induced hearing loss and hair cell loss [4] | difference in ABR threshold shifts between control and treated rats [5, 8] | difference in ABR threshold shifts between control and treated rats [5, 9] | difference in ABR threshold shifts between control and treated rats [5, 10] | difference in ABR threshold shifts between control and treated rats [5, 11] | other results
Oc1ncnc2[nH]ncc12 [allopurinol, 4-hydroxypyrazolo[3,4-d]pyrimidine] | highly significant | significant protection | highly significant | significant reductions | – | – | – | – | – | difference in ABR threshold shifts between control and treated rats ([1]; 16 kHz stimulus, 3 weeks after noise): highly significant; protection from noise-induced hearing loss and hair cell loss ([1]; statement in Example 1 referring to EXAMPLE 2): provide protection
O=c1c2ccccc2[se]n1-c1ccccc1 [ebselen, 2-phenyl-1,2-benzoisoselenazol-3(2H)-one] | highly significant | significant protection | highly significant | significant reductions | physiologic protection | highly significant | highly significant | significant | highly significant | difference in ABR threshold shifts between control and treated rats ([2]; 8 kHz stimulus, p<0.01): highly significant; difference in ABR threshold shifts between control and treated rats ([2]; 16 kHz stimulus, p<0.05): significant; reduction in TTS compared with controls ([2]; 1 day after repeated noise exposures): significant reduction; PTS compared to controls ([2]; three weeks after repeated noise exposures): significantly reduced; number of outer hair cells lost ([3]; individual rats B and D, two exposures to 110 dB noise, control rats A and C lost 401 and 246): 90 and 56; hair cell loss in cochlea compared to the control group ([3]; repeated noise exposure): less hair cell loss; preservation of outer hair cells ([4]; after noise exposure, control animal had almost complete loss of outer hair cells): preservation of most outer hair cells; reduction in TTS and PTS compared to control animals (fold) ([5]; click stimulus, 16 mg/kg): at least two-fold; reduction in TTS (temporary threshold shift) compared with controls ([5]; click stimulus, one day after noise exposure, 16 mg/kg): highly significant reduction; reduction in PTS (permanent threshold shift) compared with controls ([5]; click stimulus, three weeks after noise exposure, 16 mg/kg): significant reduction; PTS of a treated animal ([5]; single ebselen-treated animal, control animal 15 dB PTS): 0 dB
CC(=O)N[C@@H](CS)C(=O)O [N-acetyl-cysteine, N-acetyl-L-Cysteine] | – | – | – | – | physiologic protection | significant | significant | significant | significant | reduction in TTS ([5]; click stimulus, all time points after noise exposure, 325 mg/kg): significant reduction
